Assay results reported in patent US20190167676A1, “METHODS FOR IMPROVING RESISTANCE TO SKELETAL MUSCLE FATIGUE” (Cytokinetics, Inc., priority 2012, published 2019).

Assays:
[1] = system: patients with peripheral artery disease and claudication; experiment: Bilateral heel raise test, Phase II study; assay type: in vivo, human
Experimental: This study was a double-blind, randomized, placebo-controlled, three-period cross-over, hypothesis generating Phase II study in patients with peripheral artery disease and claudication. […] Secondary objectives included (a) evaluation and characterization of the relationship, if any, between the doses and plasma concentrations of Compound A and its pharmacodynamic effects, and (b) evaluation of the safety and tolerability of Compound A administered as single doses.
Single doses of each of 375 mg Compound A, 750 mg Compound A and placebo were administered in random order with a 6 to 10 day wash out between each dose. […] Results were analyzed using a repeated-measures ANCOVA with treatment, sequence, period, baseline, and patient in the model. […]
In the bilateral heel raise test, the lateral aspect of the ankle on the dominant leg was instrumented with an electromechanical goniometer connected to a PC-based data collection system to monitor and record ankle angle position and range of motion (Noraxon U.S.A., Inc., Scottsdale, Ariz.). […] The total number of heel raises, time, and a calculated index of work performed were assessed from the beginning of test to the onset of claudication and to maximal exercise. An index of work performed was calculated as follows: Heel Raise Work Index (HRWI)=(sinθ°*foot length)*body mass.

rat EDL muscle [2] = experiment: Isometric tension and relaxation time in rat EDL muscle in situ; assay type: in vivo
Experimental: As with the in vitro FDB muscle studies, another predominately fast muscle fiber type, the extensor digitorum long us (EDL), was stimulated toward contractions in unconscious rats in situ. In these isometric muscle studies (measuring force at fixed length), force, time to peak contraction, time to half relaxation after cessation of stimulation (RT1/2) and baseline tension were determined. These studies have the advantage that the nerve and muscle pair were intact and had typical blood flow to the muscle under investigation.
Rats were placed under anesthesia using isoflurane and the skin around the experimental leg was removed. The distal end of the EDL muscle and its associated tendon were then isolated. The rat was then placed on the platform of an Aurora in-situ muscle analysis rig (806C), maintained at body temperature via a circulating water system. The knee was immobilized in a clamp between two sharpened screws and the distal tendon cut and tied to the arm of a force transducer (Aurora Scientific, Ontario, Canada) using a silk suture. The muscle was stimulated directly via the peroneal nerve. […] Muscle contractile properties were assessed by applying an electrical current to the nerve and recording the force generated by the muscle via a servomotor. […]

rat EDL muscle [3] = experiment: Fatigue in rat EDL muscle following femoral artery ligation (FAL); assay type: in vivo; settings: for average stimulation frequency for force production similar to pre-dose: vehicle 30 Hz
Source text: Rats were placed under anesthesia using isoflurane and the skin around the experimental leg was removed. The distal end of the EDL muscle and its associated tendon were then isolated. The rat was then placed on the platform of an Aurora in-situ muscle analysis rig (806C), maintained at body temperature via a circulating water system. The knee was immobilized in a clamp between two sharpened screws and the distal tendon cut and tied to the arm of a force transducer (Aurora Scientific, Ontario, Canada) using a silk suture. The muscle was stimulated directly via the peroneal nerve. For isolation of the nerve, a 1 cm incision was made at the upper thigh and the overlying gastrocnemius muscle was cut to expose an approximate 5 mm stretch of the peroneal nerve. This was then dissected free of surrounding connective tissue and a pair of stainless steel needle electrodes (0.10 mm) were hooked around the exposed nerve. Muscle contractile properties were assessed by applying an electrical current to the nerve and recording the force generated by the muscle via a servomotor. The muscle length was adjusted to produce the maximum isometric force (Lo) after sub-maximal stimulation (30 Hz, 1 ms pulses, 350 ms train duration). Once Lo had been established, the nerve was stimulated every 2 minutes with a 30 Hz train (1 ms stimuli, 350 ms duration) for the course of the experiment. This preparation was stable for 4-6 hours.
With the rat in situ EDL muscle preparation described in Example 3, a fatiguing protocol was utilized where muscle was stimulated for 600 seconds. Vehicle-treated muscle was electrically stimulated at 30 Hz while the stimulation frequency was reduced in Compound A treated rats to ensure similar force production to pre-dose levels, prior to femoral artery ligation (average stimulation frequency of 29 and 26Hz, for 0.5 mg/kg and 1 mg/kg Compound A, respectively). This protocol produced a robust and reproducible fatigue in EDL muscle following femoral artery ligation, with a transient increase to 136.0±6.8% of initial force over the first 90-100 seconds, followed by a rapid drop in force before stabilization at approximately 40% of initial force. The initial rise in tension is believed to be due to Pi-induced increases in free intracellular Ca^2+ due to inhibition of sarco(endo)plasmic reticulum Ca^2+-ATPases (SERCAs) pumping into the SR (Allen, Physiol Rev 88:287-332, 2008). Following ligation of the femoral artery (R. A. Challiss et al. Biochem J. 1986 Dec. 1; 240(2):395-401) Compound A was administered in solution (50% PEG300/10% EtOH/40% Cavitron formulation) via a jugular vein catheter as a single slow bolus over a 2 min period.
Time for force to decrease to 50% of initial force was lengthened from 259±30 seconds to […] (P<0.0001, T-test).

rat FDB muscle = experiment: Isometric fatigue protocol in isolated rat FDB muscle; settings: 5 μM
Experimental: The isometric fatigue protocol was based on published studies (Germinario et al, 2004). Isolated rat FDB muscles were incubated at 4° C. with either 0.1% DMSO Krebs buffer or buffer containing 5 μM Compound A for 30 minutes. The tissues were then transferred to an isometric force transducer at 30° C. with the same concentration of DMSO or Compound A. Muscles were stimulated via field electrodes with supra maximal voltage to tetanus (120 Hz stimulation, 1 ms pulses, 350 ms duration) every minute and the length adjusted to achieve maximal tension development (Lo) which was recorded. The stimulation frequency was adjusted to achieve 50% of maximal force for each tissue: The average stimulation frequency required to achieve FMax 50% (mean +/− sd) for 0.1% DMSO was: 32.4 +/− 3.3 Hz, and for 5 μM Compound A it was 20.5 +/− 4.9 Hz. The muscles were then stimulated every six seconds for 15 minutes with field electrodes (1 ms stimulus, 350 ms trains) which produced a rapid drop in developed force over the course of 900 seconds for both the control fibers and Compound A fibers, with the control group showing a greater and more rapid drop in tension than the Compound A group.

fast skeletal myofibrils = target: T1, fast skeletal myofibrils (Homo sapiens, UniProt P02585); settings: cited from earlier work
T1 construct: from tissue; host or cells: fast skeletal muscle myofibrils

[4] = stimulated every six seconds for 15 minutes

T1 sequence (P02585 whole entry): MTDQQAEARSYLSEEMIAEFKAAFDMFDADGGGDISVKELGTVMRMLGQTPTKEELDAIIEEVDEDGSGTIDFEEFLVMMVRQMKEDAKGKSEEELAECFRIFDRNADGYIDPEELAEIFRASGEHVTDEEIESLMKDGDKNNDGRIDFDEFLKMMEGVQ
T1 sequence (P48788 whole entry partner): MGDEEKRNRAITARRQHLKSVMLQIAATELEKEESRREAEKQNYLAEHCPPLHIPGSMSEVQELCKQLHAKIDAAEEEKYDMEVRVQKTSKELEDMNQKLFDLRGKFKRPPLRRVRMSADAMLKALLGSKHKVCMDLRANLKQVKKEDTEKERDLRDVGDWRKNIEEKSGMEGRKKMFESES
T1 sequence (P45378 whole entry partner): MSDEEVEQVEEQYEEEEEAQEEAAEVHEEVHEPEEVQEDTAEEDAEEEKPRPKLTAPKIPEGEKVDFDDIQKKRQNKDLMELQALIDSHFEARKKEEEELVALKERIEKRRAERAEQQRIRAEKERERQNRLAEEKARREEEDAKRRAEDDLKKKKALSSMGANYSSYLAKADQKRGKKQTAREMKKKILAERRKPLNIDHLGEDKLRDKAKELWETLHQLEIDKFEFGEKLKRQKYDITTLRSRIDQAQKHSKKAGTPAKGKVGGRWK

## C#Cc1cnc2nc(O)n(C(CC)CC)c2n1 [Compound A, 6-ethynyl-1-(pentan-3-yl)-1H-imidazo[4,5-b]pyrazin-2-ol]
[1]; PK/PD analysis, FIG. 14
  relationship between plasma concentrations and outcomes in the Heel Raise Test: strong positive relationship
[1]; single doses 375, 500, 750 mg, 3 and 6 hours after dosing
  calf muscle performance by heel raise testing: increased calf muscle performance
Rat EDL muscle [2]; 10 mg/kg
  increase in relaxation time: approximately 3.5 fold
Rat EDL muscle [2]; femoral artery catheter, dose escalation up to 10 mg/Kg
  sub-maximal and maximal force in situ: increase in sub-maximal force without increasing maximal force
Rat EDL muscle [3]; 0.5 mg/kg
  average stimulation frequency for force production similar to pre-dose: 29 Hz
Rat EDL muscle [3]; 1 mg/kg
  average stimulation frequency for force production similar to pre-dose: 26 Hz
Rat EDL muscle [3]; FAL rats
  time of rise to initial increase in force: 160 to 170 s
Rat EDL muscle [3]; FAL rats vs vehicle, FIG. 5
  time to fatigue and tension-generating capacity: dose-dependent increase
Rat EDL muscle [3]; FAL rats, jugular vein bolus
  initial increase in force: 156.3±10.4 % of initial force
Rat EDL muscle [3]; FAL rats, vehicle 259±30
  time for force to decrease to 50% of initial force: 752 ± 64 s
Rat FDB muscle
  average stimulation frequency required to achieve FMax 50% (mean +/- sd): 20.5 +/− 4.9 Hz
Rat FDB muscle; [4]
  force at 900 seconds, % of fMax: 28.4±1.2 % f Max
  force at 900 seconds, % of initial tension: 53.9±2.1 % of initial tension
Fast skeletal myofibrils
  myosin ATPase relationship to Ca2+ concentration: leftward-shift
